Assay results published in ChEMBL document CHEMBL1275579, “Plasmid-mediated 16S rRNA methylases in aminoglycoside-resistant Enterobacteriaceae isolates in Shanghai, China” (2009).

Assays:
[1] = system: Enterobacter cloacae; test: Antibacterial activity against armA-positive Enterobacter cloacae expressing KPC-2 beta-lactamase by CLSI method; format: functional
[2] = system: Enterobacteriaceae; test: Antibacterial activity against 16S rRNA methylase and beta-lactamase producing Enterobacteriaceae by CLSI method; format: functional

Molecule: C[C@@H](O)[C@H]1C(=O)N2C(C(=O)O)=C(SCCNC=N)C[C@H]12 [IMIPENEM ANHYDROUS]
- MIC [1]: > 32 µg/mL

Molecule: NCC[C@H](O)C(=O)N[C@@H]1C[C@H](N)[C@@H](O[C@H]2O[C@H](CN)[C@@H](O)[C@H](O)[C@H]2O)[C@H](O)[C@H]1O[C@H]1O[C@H](CO)[C@@H](O)[C@H](N)[C@H]1O [AMIKACIN]
- MIC50 [2]: > 256 µg/mL
- MIC90 [2]: > 256 µg/mL

Molecule: GENTAMICIN
- MIC50 [2]: > 256 µg/mL
- MIC90 [2]: > 256 µg/mL
